Assay results: publication PMC3721637 (Chemistry & biology, 2009)
Blank lines part the entries; values can stand above or below the molecule they belong to. No end group written: not given here. carboxyfluorescein = carboxyfluorescein N-terminal label

What was measured:
[1] = Biomarker dosing in rats following IFN-γ treatment, plasma level; assay type: in vivo, rat
[2] = biological target: recombinant soluble HLA-DQ2 heterodimer (thrombin-cleaved DQ2-αI-gliadin peptide complex) (human) (UniProt P01909); experiment: SEC

IFN-γ-treated rats with biomarker detected in plasma ([1]; 20 mg oral gavage after 2 days i.v. IFN-γ, plasma 60 min, 3Q LC-MS/MS): one of four
plasma level in IFN-γ-treated animal relative to control animal ([1]; rats, oral biomarker, single animals with detectable plasma biomarker): ~ 10 fold
Molecule: LQLQPF (PQPHLPY)3PQPQPF [[^13C3]-HHH-33-mer]

fold by which EEE-33-mer binds more than this peptide [2]: 15.6 fold
B1: fluorescein-conjugated NNN-33-mer biomarker (peptide)
peptide: carboxyfluorescein-LQLQPFPQPNLPYPQPNLPYPQPNLPYPQPQPF

percent of peptide bound [2]: > 80%
B2: fluorescein-conjugated EEE-33-mer (synthetically deamidated 33-mer from α2-gliadin) (peptide)
peptide: carboxyfluorescein-LQLQPFPQPELPYPQPELPYPQPELPYPQPQPF
